Measurements as given in patent US12378224B2 (Dong-A Socio Holdings Co., Ltd., priority 2016, dated 2025).

Molecular target: human MER (528-end) (Homo sapiens (Human), UniProt Q12866)
Experiment: HTRF Kinase Activity Biochemical Assay (KinEASE-TK)
Details: 10 uM ATP
Procedure, shortened: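 Recombinant human MER (528-end) phosphorylated biotin-TK peptide substrate, 1 h at room temperature. Reaction stopped with detection buffer containing 0.375 nM Eu3+-cryptate anti-TK antibody and 0.062 uM streptavidin-XL665, 1 h further. Activity taken as HTRF ratio 665/620 nm ×10,000, 340 nm excitation.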

Sequence of human MER (528-end) (Q12866 528-999 limits assumed): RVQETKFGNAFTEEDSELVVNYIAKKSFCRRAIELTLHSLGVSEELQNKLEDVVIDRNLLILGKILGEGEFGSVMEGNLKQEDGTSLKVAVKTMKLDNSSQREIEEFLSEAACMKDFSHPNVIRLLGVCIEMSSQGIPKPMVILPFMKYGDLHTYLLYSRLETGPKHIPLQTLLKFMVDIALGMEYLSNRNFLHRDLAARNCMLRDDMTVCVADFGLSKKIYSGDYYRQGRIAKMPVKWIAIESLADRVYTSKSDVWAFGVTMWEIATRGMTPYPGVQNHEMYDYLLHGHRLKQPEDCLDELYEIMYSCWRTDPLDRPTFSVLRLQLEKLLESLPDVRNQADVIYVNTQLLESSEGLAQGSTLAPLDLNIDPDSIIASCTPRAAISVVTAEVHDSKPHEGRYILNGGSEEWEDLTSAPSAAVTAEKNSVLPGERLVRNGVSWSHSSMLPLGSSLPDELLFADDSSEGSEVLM

Row | Compound | IC50 [µM]
1 | COc1cccc(CN2CC[C@@H](NC(=O)c3cc(-c4cnn(C5CCNCC5)c4)cnc3N)C2)c1 [Example 154, (R)-2-amino-N-(1-(3-methoxybenzyl)pyrrolidin-3-yl)-5-(1-(piperidin-4-yl)-1H-pyrazol-4-yl)nicotinamide] | 0.1 to 1
2 | Nc1ncc(-c2cnn(C3CCNCC3)c2)cc1C(=O)N[C@@H]1CCN(Cc2ccc([N+](=O)[O-])cc2)C1 [Example 156, (R)-2-amino-N-(1-(4-nitrobenzyl)pyrrolidin-3-yl)-5-(1-(piperidin-4-yl)-1H-pyrazol-4-yl)nicotinamide] | > 1
3 | Nc1ncc(-c2cnn(C3CCNCC3)c2)cc1C(=O)N[C@@H]1CCN(Cc2cc(F)c(F)cc2F)C1 [Example 157, (R)-2-amino-5-(1-(piperidin-4-yl)-1H-pyrazol-4-yl)-N-(1-(2,4,5-trifluorobenzyl)pyrrolidin-3-yl)nicotinamide] | > 1
4 | Nc1ncc(-c2cnn(C3CCNCC3)c2)cc1C(=O)N[C@@H]1CCN(Cc2ccc(F)c(Cl)c2)C1 [Example 158, (R)-2-amino-N-(1-(3-chloro-4-fluorobenzyl)pyrrolidin-3-yl)-5-(1-(piperidin-4-yl)-1H-pyrazol-4-yl)nicotinamide] | 0.1 to 1
5 | Nc1ncc(-c2cnn(C3CCNCC3)c2)cc1C(=O)N[C@@H]1CCN(Cc2c(Cl)cccc2Cl)C1 [Example 159, (R)-2-amino-N-(1-(2,6-dichlorobenzyl)pyrrolidin-3-yl)-5-(1-(piperidin-4-yl)-1H-pyrazol-4-yl)nicotinamide] | > 1
6 | Nc1ncc(-c2cnn(C3CCNCC3)c2)cc1C(=O)N[C@@H]1CCN(Cc2ccc(F)c(F)c2)C1 [Example 160, (R)-2-amino-N-(1-(3,4-difluorobenzyl)pyrrolidin-3-yl)-5-(1-(piperidin-4-yl)-1H-pyrazol-4-yl)nicotinamide] | > 1
7 | Nc1ncc(-c2cnn(C3CCNCC3)c2)cc1C(=O)N[C@@H]1CCN(Cc2c(F)ccc(F)c2F)C1 [Example 162, (R)-2-amino-5-(1-(piperidin-4-yl)-1H-pyrazol-4-yl)-N-(1-(2,3,6-trifluorobenzyl)pyrrolidin-3-yl)nicotinamide] | > 1
8 | Cc1nc(C)c(CN2CC[C@@H](NC(=O)c3cc(-c4cnn(C5CCNCC5)c4)cnc3N)C2)s1 [Example 163, (R)-2-amino-N-(1-((2,4-dimethylthiazol-5-yl)methyl)pyrrolidin-3-yl)-5-(1-(piperidin-4-yl)-1H-pyrazol-4-yl)nicotinamide] | > 1
9 | Cc1ccc(C)c(CN2CC[C@@H](NC(=O)c3cc(-c4cnn(C5CCNCC5)c4)cnc3N)C2)c1 [Example 166, (R)-2-amino-N-(1-(2,5-dimethylbenzyl)pyrrolidin-3-yl)-5-(1-(piperidin-4-yl)-1H-pyrazol-4-yl)nicotinamide] | > 1
10 | Nc1ncc(-c2cnn(C3CCNCC3)c2)cc1C(=O)N[C@@H]1CCN(Cc2ccccc2C(F)(F)F)C1 [Example 168, (R)-2-amino-5-(1-(piperidin-4-yl)-1H-pyrazol-4-yl)-N-(1-(2-(trifluoromethyl)benzyl)pyrrolidin-3-yl)nicotinamide] | > 1
11 | Nc1ncc(-c2cnn(C3CCNCC3)c2)cc1C(=O)N[C@@H]1CCN(CC2CC=CCC2)C1 (stereo partly drawn) [Example 169, 2-amino-N-((3R)-1-(cyclohex-3-en-1-ylmethyl)pyrrolidin-3-yl)-5-(1-(piperidin-4-yl)-1H-pyrazol-4-yl)nicotinamide] | > 1
12 | CC1(C)[C@H]2CC=C(CN3CC[C@@H](NC(=O)c4cc(-c5cnn(C6CCNCC6)c5)cnc4N)C3)[C@@H]1C2 [Example 170, 2-amino-N—((R)-1-(((1R,5S)-6,6-dimethylbicyclo[3.1.1]hept-2-en-2-yl)methyl)pyrrolidin-3-yl)-5-(1-(piperidin-4-yl)-1H-pyrazol-4-yl)nicotinamide] | > 1
13 | COc1cccc(CN2CC[C@@H](NC(=O)c3cc(-c4cnn(C)c4)cnc3N)C2)c1 [Example 209, (R)-2-amino-N-(1-(3-methoxybenzyl)pyrrolidin-3-yl)-5-(1-methyl-1H-pyrazol-4-yl)nicotinamide] | > 1
14 | Cn1cc(-c2cnc(N)c(C(=O)N[C@@H]3CCN(Cc4ccc(Cl)c(Cl)c4)C3)c2)cn1 [Example 213, (R)-2-amino-N-(1-(3,4-dichlorobenzyl)pyrrolidin-3-yl)-5-(1-methyl-1H-pyrazol-4-yl)nicotinamide] | > 1
15 | Cc1ccc(CN2CC[C@@H](NC(=O)c3cc(-c4cnn(C)c4)cnc3N)C2)cc1C [Example 214, (R)-2-amino-N-(1-(3,4-dimethylbenzyl)pyrrolidin-3-yl)-5-(1-methyl-1H-pyrazol-4-yl)nicotinamide] | > 1
16 | COc1cc(CN2CC[C@@H](NC(=O)c3cc(-c4cnn(C)c4)cnc3N)C2)cc(OC)c1 [Example 216, (R)-2-amino-N-(1-(3,5-dimethoxybenzyl)pyrrolidin-3-yl)-5-(1-methyl-1H-pyrazol-4-yl)nicotinamide] | > 1
17 | COc1ccc(OC)c(CN2CC[C@@H](NC(=O)c3cc(-c4cnn(C)c4)cnc3N)C2)c1 [Example 218, (R)-2-amino-N-(1-(2,5-dimethoxybenzyl)pyrrolidin-3-yl)-5-(1-methyl-1H-pyrazol-4-yl)nicotinamide] | > 1
18 | COc1ccc(CN2CC[C@@H](NC(=O)c3cc(-c4cnn(C)c4)cnc3N)C2)c(OC)c1 [Example 220, (R)-2-amino-N-(1-(2,4-dimethoxybenzyl)pyrrolidin-3-yl)-5-(1-methyl-1H-pyrazol-4-yl)nicotinamide] | > 1
19 | Cn1cc(-c2cnc(N)c(C(=O)N[C@@H]3CCN(Cc4cc(Cl)cc(Cl)c4)C3)c2)cn1 [Example 224, (R)-2-amino-N-(1-(3,5-dichlorobenzyl)pyrrolidin-3-yl)-5-(1-methyl-1H-pyrazol-4-yl)nicotinamide] | > 1
20 | Cn1cc(-c2cnc(N)c(C(=O)N[C@@H]3CCN(Cc4ccc(F)c(Br)c4)C3)c2)cn1 [Example 233, (R)-2-amino-N-(1-(3-bromo-4-fluorobenzyl)pyrrolidin-3-yl)-5-(1-methyl-1H-pyrazol-4-yl)nicotinamide] | > 1

Now from value to molecule:

Row | IC50 [µM] | Compound
21 | > 1 | Cn1cc(-c2cnc(N)c(C(=O)N[C@@H]3CCN(Cc4ccccc4)C3)c2)cn1 [Example 205, (R)-2-amino-N-(1-benzylpyrrolidin-3-yl)-5-(1-methyl-1H-pyrazol-4-yl)nicotinamide]
22 | > 1 | Cn1cc(-c2cnc(N)c(C(=O)N[C@H]3CCN(Cc4ccccc4)C3)c2)cn1 [Example 207, (S)-2-amino-N-(1-benzylpyrrolidin-3-yl)-5-(1-methyl-1H-pyrazol-4-yl)nicotinamide]
23 | 0.1 to 1 | Cn1cc(-c2cnc(N)c(C(=O)N[C@@H]3CCN(Cc4ccccc4Cl)C3)c2)cn1 [Example 208, (R)-2-amino-N-(1-(2-chlorobenzyl)pyrrolidin-3-yl)-5-(1-methyl-1H-pyrazol-4-yl)nicotinamide]
24 | 0.1 to 1 | Cn1cc(-c2cnc(N)c(C(=O)N[C@@H]3CCN(Cc4ccc(Cl)cc4)C3)c2)cn1 [Example 210, (R)-2-amino-N-(1-(4-chlorobenzyl)pyrrolidin-3-yl)-5-(1-methyl-1H-pyrazol-4-yl)nicotinamide]
25 | > 1 | CCc1ccc(CN2CC[C@@H](NC(=O)c3cc(-c4cnn(C)c4)cnc3N)C2)cc1 [Example 211, (R)-2-amino-N-(1-(4-ethylbenzyl)pyrrolidin-3-yl)-5-(1-methyl-1H-pyrazol-4-yl)nicotinamide]
26 | > 1 | CC(C)c1ccc(CN2CC[C@@H](NC(=O)c3cc(-c4cnn(C)c4)cnc3N)C2)cc1 [Example 212, (R)-2-amino-N-(1-(4-isopropylbenzyl)pyrrolidin-3-yl)-5-(1-methyl-1H-pyrazol-4-yl)nicotinamide]
27 | > 1 | COc1ccc(O)c(CN2CC[C@@H](NC(=O)c3cc(-c4cnn(C)c4)cnc3N)C2)c1 [Example 219, (R)-2-amino-N-(1-(2-hydroxy-5-methoxybenzyl)pyrrolidin-3-yl)-5-(1-methyl-1H-pyrazol-4-yl)nicotinamide]
28 | 0.1 to 1 | Cn1cc(-c2cnc(N)c(C(=O)N[C@@H]3CCN(Cc4ccccc4-c4ccccc4)C3)c2)cn1 [Example 225, (R)—N-(1-([1,1′-biphenyl]-2-ylmethyl)pyrrolidin-3-yl)-2-amino-5-(1-methyl-1H-pyrazol-4-yl)nicotinamide]
29 | > 1 | Cn1cc(-c2cnc(N)c(C(=O)N[C@@H]3CCN(Cc4ccc(-c5ccccc5)cc4)C3)c2)cn1 [Example 226, (R)—N-(1-([1,1′-biphenyl]-4-ylmethyl)pyrrolidin-3-yl)-2-amino-5-(1-methyl-1H-pyrazol-4-yl)nicotinamide]
30 | > 1 | Cn1cc(-c2cnc(N)c(C(=O)N[C@@H]3CCN(CCCc4ccccc4)C3)c2)cn1 [Example 227, (R)-2-amino-5-(1-methyl-1H-pyrazol-4-yl)-N-(1-(3-phenylpropyl)pyrrolidin-3-yl)nicotinamide]
31 | 0.1 to 1 | Cn1cc(-c2cnc(N)c(C(=O)N[C@@H]3CCN(CC=Cc4ccccc4)C3)c2)cn1 [Example 228, (R)-2-amino-N-(1-cinnamylpyrrolidin-3-yl)-5-(1-methyl-1H-pyrazol-4-yl)nicotinamide]
32 | > 1 | Cn1cc(-c2cnc(N)c(C(=O)N[C@@H]3CCN(CCOCc4ccccc4)C3)c2)cn1 [Example 229, (R)-2-amino-N-(1-(2-(benzyloxy)ethyl)pyrrolidin-3-yl)-5-(1-methyl-1H-pyrazol-4-yl)nicotinamide]
33 | > 1 | Cn1cc(-c2cnc(N)c(C(=O)N[C@@H]3CCN(CCc4ccccc4)C3)c2)cn1 [Example 230, (R)-2-amino-5-(1-methyl-1H-pyrazol-4-yl)-N-(1-phenethylpyrrolidin-3-yl)nicotinamide]
34 | > 1 | Cn1cc(-c2cnc(N)c(C(=O)N[C@@H]3CCN(Cc4cccc(Br)c4)C3)c2)cn1 [Example 231, (R)-2-amino-N-(1-(3-bromobenzyl)pyrrolidin-3-yl)-5-(1-methyl-1H-pyrazol-4-yl)nicotinamide]
35 | 0.1 to 1 | Cn1cc(-c2cnc(N)c(C(=O)N[C@@H]3CCN(Cc4ccccc4Br)C3)c2)cn1 [Example 232, (R)-2-amino-N-(1-(2-bromobenzyl)pyrrolidin-3-yl)-5-(1-methyl-1H-pyrazol-4-yl)nicotinamide]
